Holding throughout (format): physicochemical
Series [1] can be described thus: Lipid nanoparticle size and polydispersity by dynamic light scattering (Malvern Zetasizer Nano ZS). Conditions: LNP encapsulating hEPO mRNA; table of Example 16. As to the method: (§1) Briefly, a cationic lipid provided herein, DSPC, cholesterol, and PEG-lipid were solubilized in ethanol at a molar ratio of 50:10:38.5:1.5, and mRNA were diluted in 10 to 50 mM citrate buffer, pH=4. The LNPs were prepared at a total lipid to mRNA weight ratio of approximately 10:1 to 30:1 by mixing the ethanolic lipid solution with the aqueous mRNA solution at a volume ratio of 1:3 using a microfluidic apparatus, total flow rate ranging from 9-30 mL/min. Ethanol were thereby removed and replaced by DPBS using dialysis. Finally, the lipid nanoparticles were filtered through a 0.2 μm sterile filter.
(§2) Lipid nanoparticle size were determined by dynamic light scattering using a Malvern Zetasizer Nano ZS (Malvern UK) using a 173° backscatter detection mode. The encapsulation efficiency of lipid nanoparticles were determined using a Quant-it Ribogreen RNA quantification assay kit (Thermo Fisher Scientific, UK) according to the manufacturer's instructions.

A short description of series [2]: Encapsulation efficiency of lipid nanoparticles (Quant-it Ribogreen RNA quantification assay). The following applies: LNP encapsulating hEPO mRNA; table of Example 16. The protocol: as §1, §2
A short description of series [3]: Apparent pKa of LNP formulations by TNS fluorescence assay. Conditions: LNP cationic lipid/DSPC/cholesterol/DMG-PEG 50/10/38.5/1.5 mol %, table of Example 16. As to the method: As reported in literature, the apparent pKa of LNP formulations correlates with the delivery efficiency of LNPs for nucleic acids in vivo. The apparent pKa of each formulation was determined using an assay based on fluorescence of 2-(p-toluidino)-6-napthalene sulfonic acid (TNS). LNP formulations comprising of cationic lipid/DSPC/cholesterol/DMG-PEG (50/10/38.5/1.5 mol %) in PBS were prepared as described above. TNS was prepared as a 300 uM stock solution in distilled water. LNP formulations were diluted to 0.1 mg/ml total lipid in 3 mL of buffered solutions containing 50 mM sodium citrate, 50 mM sodium phosphate, 50 mM sodium borate, and 30 mM sodium chloride where the pH ranged from 3 to 9. An aliquot of the TNS solution was added to give a final concentration of 0.1 mg/ml and following vortex mixing fluorescence intensity was measured at room temperature in a Molecular Devices Spectramax iD3 spectrometer using excitation and mission wavelengths of 325 nm and 435 nm. A sigmoidal best fit analysis was applied to the fluorescence data and the pKa value was measured as the pH giving rise to half-maximal fluorescent intensity.

The source of these data is patent US20240252650A1, “LIPID COMPOUNDS AND LIPID NANOPARTICLE COMPOSITIONS” (SUZHOU ABOGEN BIOSCIENCES CO., LTD., priority 2021, published 2024).

For `CCCCCCCC(=O)OCC(CCCC(=O)OCC(COC(=O)CCCC(COC(=O)CCCCCCC)COC(=O)CCCCCCC)COC(=O)OCCN(C)CCO)COC(=O)CCCCCCC` [Compound 91], in series [1], the polydispersity came out at 0.023 and the “size (nm)” value is recorded as 72.66 nm. The “Encapsulation Efficiency” value in series [2] was 86.02%. Besides, in series [3], the “Apparant Pka” value was determined as 5.811.
As for `CCCCCCCCOC(=O)CCCCCCCC(=O)OCC(COC(=O)CCCCN(CCO)C1CCCCC1)COC(=O)CCCC(COC(=O)CCCCCCC)COC(=O)CCCCCCC` (stereo not shown) [Compound 104], in series [1], the polydispersity is given as 0.02612 and the “size (nm)” value turned out to be 98.52 nm. In addition, in series [2], the “Encapsulation Efficiency” value was 89.87%. Also, the “Apparant Pka” value in series [3] came out at 6.707.
For `CCCCCCCCCCCCCCCCCC(=O)OCC(COC(=O)CCCCN(CCO)CC(C)C)COC(=O)CCCC(COC(=O)CCCCCCC)COC(=O)CCCCCCC` (stereo not shown) [Compound 97], the “Apparant Pka” value in series [3] came to 6.006.
In the case of `CCCCCCCCC(=O)OCC(COC(=O)CCCCCCN(CCO)C1CCC1)COC(=O)CCCC(COC(=O)CCCCCCC)COC(=O)CCCCCCC` (stereo not shown) [Compound 57], in series [1], the polydispersity is given as 0.079 and the “size (nm)” value was determined as 117 nm. In addition, the “Encapsulation Efficiency” value in series [2] stood at 84.36%. In addition, the “Apparant Pka” value in series [3] is on record as 7.016.
Regarding `CCCCCCCCCC(=O)OCC(COC(=O)CCCCCCCN(CCO)C1CCC1)COC(=O)CCCC(COC(=O)CCCCCCC)COC(=O)CCCCCCC` (stereo not shown) [Compound 80], the “Apparant Pka” value in series [3] is 6.858.
Consider `C/C=C/CN(CCO)CCCOC(=O)OCC(COC(=O)CCCCCCC/C=C\C/C=C\CCCCC)COC(=O)CCCC(COC(=O)CCCCCCC)COC(=O)CCCCCCC` (stereo not shown) [Compound 94], for which the “Apparant Pka” value in series [3] came out at 6.192.
On the same count and under the same terms, for `CCCCCCCCCCCCCCCCCC(=O)OCC(COC(=O)CCCCN(CCO)C1CCCCCC1)COC(=O)CCCC(COC(=O)CCCCCCC)COC(=O)CCCCCCC` (stereo not shown) [Compound 75] the value was 6.547.
In the case of `CCCCC/C=C\C/C=C\CCCCCCCC(=O)OCC(COC(=O)CCCC(COC(=O)CCCCCCC)COC(=O)CCCCCCC)COC(=O)OCCN(CCO)C1CCCCC1` (stereo not shown) [Compound 8], in series [1], the polydispersity came out at 0.049 and the “size (nm)” value turned out to be 63.20 nm. Further, the “Encapsulation Efficiency” value in series [2] is 85.90%.
With `CCCCC/C=C\C/C=C\CCCCCCCC(=O)OCC(COC(=O)CCOC(COC(=O)CCCCCCC)COC(=O)CCCCCCC)COC(=O)OCCCN(CC)CC` (stereo not shown) [Compound 3], in series [1], the polydispersity turned out to be 0.121 and the “size (nm)” value was found to be 88.27 nm. In addition, the “Encapsulation Efficiency” value in series [2] turned out to be 89.46%. Further, the “Apparant Pka” value in series [3] worked out at 6.649.
Turning to `CCCCCCCCCCCC(=O)OCC(COC(=O)CCCCCN(CCO)C1CCC1)COC(=O)CCCC(COC(=O)CCCCCCC)COC(=O)CCCCCCC` (stereo not shown) [Compound 51], the “Apparant Pka” value in series [3] stood at 7.288.
With `CCCCC/C=C\C/C=C\CCCCCCCC(=O)OCC(COC(=O)CCCC(COC(=O)CCCCCCC)COC(=O)CCCCCCC)COC(=O)OCCN(CCO)C1CCCC1` (stereo not shown) [Compound 33], in series [1], the polydispersity was 0.053 and the “size (nm)” value turned out to be 71.21 nm. Besides, the “Encapsulation Efficiency” value in series [2] was 83.76%.
`CCCCCCCCCCCCCCCCCC(=O)OCC(COC(=O)CCCCN(CCO)C1CCC1)COC(=O)CCCC(COC(=O)CCCCCCC)COC(=O)CCCCCCC` (stereo not shown) [Compound 72]: the “Apparant Pka” value in series [3] is listed as 7.076.
Still for that read-out and setting: for `CCCCCCCCCCCCCCCCCC(=O)OCC(COC(=O)CCCC(COC(=O)CCCCCCC)COC(=O)CCCCCCC)COC(=O)OCCCN(CCO)C1CCCCC1` (stereo not shown) [Compound 65] the value was 6.111; for `CCCCCCCCCCCCCCCC(=O)OCC(COC(=O)CCCCN(CCO)C1CCC1)COC(=O)CCCC(COC(=O)CCCCCCC)COC(=O)CCCCCCC` (stereo not shown) [Compound 41], 6.895.
Regarding `CCCCCCCCCCCCC(=O)OCC(COC(=O)CCCCN(CCO)C1CCC1)COC(=O)CCCC(COC(=O)CCCCCCC)COC(=O)CCCCCCC` (stereo not shown) [Compound 18], in series [1], the polydispersity came to 0.031 and the “size (nm)” value amounted to 84.24 nm. For the same compound, the “Encapsulation Efficiency” value in series [2] is on record as 78.25%. In addition, in series [3], the “Apparant Pka” value is recorded as 6.915.
As for `CCCCC/C=C\C/C=C\CCCCCCCC(=O)OCC(COC(=O)CCCC(COC(=O)CCCCCCC)COC(=O)CCCCCCC)COC(=O)OCCCN(CCO)C1CCCCC1` (stereo not shown) [Compound 106], in series [1], the polydispersity stood at 0.01154 and the “size (nm)” value is reported as 77.71 nm. In addition, in series [2], the “Encapsulation Efficiency” value came to 77.94%. For the same compound, the “Apparant Pka” value in series [3] came out at 6.091.
For `CCCCC/C=C\C/C=C\CCCCCCCC(=O)OCC(COC(=O)CCCC(COC(=O)CCCCCCC)COC(=O)CCCCCCC)COC(=O)CCN(CCO)C1CCC1` (stereo not shown) [Compound 1], in that order: 0.047, 77.60 nm, 89.48% and 5.56.
For `CCCCCCCCCCCCCCCCCC(=O)OCC(COC(=O)CCCCN(CCC)CCO)COC(=O)CCC(=O)OCC(COC(=O)CCCCCCC)COC(=O)CCCCCCC` (stereo not shown) [Compound 98], in that order: 0.207, 102.92 nm, 83.41% and 7.14.
With `CCCCC/C=C\C/C=C\CCCCCCCC(=O)OCC(COC(=O)CCCC(COC(=O)CCCCCCC)COC(=O)CCCCCCC)COC(=O)OCCN(CCO)C1CCC1` (stereo not shown) [Compound 12], in series [1], the polydispersity is on record as 0.096 and the “size (nm)” value was 53.68 nm. In addition, in series [2], the “Encapsulation Efficiency” value worked out at 81.79%.
As for `CCCCCCCCCCC(=O)OCC(COC(=O)CCCCN(CCO)C1CCC1)COC(=O)CCCC(COC(=O)CCCCCCC)COC(=O)CCCCCCC` (stereo not shown) [Compound 48], in series [1], the polydispersity was determined as 0.087 and the “size (nm)” value was 108.4 nm. Besides, the “Encapsulation Efficiency” value in series [2] was found to be 93.21%. For the same compound, the “Apparant Pka” value in series [3] is listed as 7.229.
Take `CCCCC/C=C\C/C=C\CCCCCCCC(=O)OCC(COC(=O)CCCCCCN(CCO)C1CCC1)COC(=O)CCCC(COC(=O)CCCCCCC)COC(=O)CCCCCCC` (stereo not shown) [Compound 42]: in series [1], the polydispersity was determined as 0.077 and the “size (nm)” value is 96.94 nm. For the same compound, in series [2], the “Encapsulation Efficiency” value turned out to be 92.04%. Further, in series [3], the “Apparant Pka” value stood at 6.879.
For `CCCCCCCCCCC(=O)OCC(COC(=O)CCCCCN(CCO)C1CCC1)COC(=O)CCCC(COC(=O)CCCCCCC)COC(=O)CCCCCCC` (stereo not shown) [Compound 49], in series [1], the polydispersity stood at 0.086 and the “size (nm)” value turned out to be 100.8 nm. In addition, the “Encapsulation Efficiency” value in series [2] was 89.09%. Also, the “Apparant Pka” value in series [3] worked out at 7.287.
`CCCCCCCCCCCCCCCCCC(=O)OCC(COC(=O)CCCCN(CCC)CCO)COC(=O)CCCC(COC(=O)CCCCCCC)COC(=O)CCCCCCC` (stereo not shown) [Compound 83]: the “Apparant Pka” value in series [3] was found to be 7.232.
For the compound `C=CCN(CCO)CCCOC(=O)OCC(COC(=O)CCCCCCC/C=C\C/C=C\CCCCC)COC(=O)CCCC(COC(=O)CCCCCCC)COC(=O)CCCCCCC` (stereo not shown) [Compound 88], the “Apparant Pka” value in series [3] is listed as 5.905.
The same measure, in the same setting: for `CCCCCCCCC(=O)OCC(COC(=O)CCCC(COC(=O)CCCCCCC)COC(=O)CCCCCCC)COC(=O)OCCCN(CCO)C1CCC1` (stereo not shown) [Compound 67] the value was 6.349.
In the case of `CCCCCCCCCCCCCCCCCC(=O)OCC(COC(=O)CCCCCN(CCO)C1CCC1)COC(=O)CCCC(COC(=O)CCCCC)COC(=O)CCCCCCC` (stereo not shown) [Compound 61], the “Apparant Pka” value in series [3] worked out at 7.019.
Still for that read-out and setting: the value for `CCCCCCCCCCCCC(=O)OCC(COC(=O)CCCCCN(CCO)C1CCC1)COC(=O)CCCC(COC(=O)CCCCCCC)COC(=O)CCCCCCC` (stereo not shown) [Compound 63] was 6.999.
`CCCCCCCC(=O)OCC(CCCC(=O)OCC(COC(=O)CCCCCCC)COC(=O)CCCCCCCN(CCO)C1CCC1)COC(=O)CCCCCCC` (stereo not shown) [Compound 44]: the “Apparant Pka” value in series [3] is 6.812.
Turning to `CCCCCCCCCCCC(=O)OCC(COC(=O)CCCC(COC(=O)CCCCCCC)COC(=O)CCCCCCC)COC(=O)CCN(CCO)C1CCC1` (stereo not shown) [Compound 15], in series [1], the polydispersity was 0.043 and the “size (nm)” value came out at 90.47 nm. The “Encapsulation Efficiency” value in series [2] was determined as 93.04%.
In the case of `CCCCCCCCCC(=O)OCC(COC(=O)CCCCCCN(CCO)C1CCC1)COC(=O)CCCC(COC(=O)CCCCCCC)COC(=O)CCCCCCC` (stereo not shown) [Compound 79], the “Apparant Pka” value in series [3] was 6.887.
Take `CCCCCCCCCCCC(=O)OCC(COC(=O)CCCCCCCN(CCO)C1CCC1)COC(=O)CCCC(COC(=O)CCCCCCC)COC(=O)CCCCCCC` (stereo not shown) [Compound 52]: the “Apparant Pka” value in series [3] is on record as 7.041.
For the compound `CCCCCCCCCC(=O)OCC(COC(=O)CCCCN(CCO)C1CCC1)COC(=O)CCCC(COC(=O)CCCCCCC)COC(=O)CCCCCCC` (stereo not shown) [Compound 47], the “Apparant Pka” value in series [3] turned out to be 7.217.
